Measured values as given in ChEMBL document CHEMBL1157133, “Design, synthesis, and interaction study of quinazoline-2(1H)-thione derivatives as novel potential Bcl-xL inhibitors” (J Med Chem, 2010).

What was measured:
Bcl-2-like protein 1 [1] = molecular target: T1, Bcl-2-like protein 1 (Homo sapiens, UniProt Q07817); experiment: Inhibition of human Bcl-XL
OVCAR-3 = experiment: Cytotoxicity against human OVCAR-3 cells after 48 hrs by MTT assay; details: OVCAR-3, 48 h
[2] = Cytotoxicity against human Bel7404 cells after 48 hrs by MTT assay; details: BEL-7404, 48 h
PC-3 = experiment: Cytotoxicity against human PC3 cells after 48 hrs by MTT assay; assay type: functional, cell-based; details: for EC50: PC-3, 48 h
A2780 = experiment: cells; details: Homo sapiens, A2780, 48 h
Description: Cytotoxicity against human A2780 cells after 48 hrs by MTT assay

HepG2 = experiment: cells; details: Homo sapiens, HepG2, 48 h
Description: Cytotoxicity against human HepG2 cells after 48 hrs by MTT assay

K562 = experiment: cells; details: Homo sapiens, K562, 48 h
Description: Cytotoxicity against human K562 cells after 48 hrs by MTT assay

Bcl-2-like protein 1 [3] = molecular target: T1, Bcl-2-like protein 1; experiment: Displacement of FITC-labeled BH3 peptide from human Bcl-XL after 1 hr by fluorescence polarization assay
[4] = molecular target: Induced myeloid leukemia cell differentiation protein Mcl-1 homolog (Mus musculus, UniProt P97287); experiment: Displacement of FITC-labeled BH3 peptide from GST-tagged mouse Mcl1 after 1 hr by fluorescence polarization assay
[5] = molecular target: Apoptosis regulator Bcl-2 (Homo sapiens, UniProt P10415); experiment: Displacement of FITC labeled BH3 peptide from His-tagged human BCL2 after 1 hr by fluorescence polarization assay
Bcl-2-like protein 1 [6] = molecular target: Bcl-2-like protein 1 (Homo sapiens, UniProt Q07817, Y101A); experiment: Binding affinity to human Bcl-XL Y101A mutant by surface plasma resonance based biosensor system
Sequence of Bcl-2-like protein 1 (Homo sapiens, UniProt Q07817, Y101A) (Q07817 whole entry Y101A): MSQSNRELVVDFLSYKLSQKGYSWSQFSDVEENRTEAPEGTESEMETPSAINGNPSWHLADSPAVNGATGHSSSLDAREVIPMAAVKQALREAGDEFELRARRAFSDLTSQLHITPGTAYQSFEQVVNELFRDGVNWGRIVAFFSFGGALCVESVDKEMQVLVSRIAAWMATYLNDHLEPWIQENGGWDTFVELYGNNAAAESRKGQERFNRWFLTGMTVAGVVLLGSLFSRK

T1 sequence (Q07817 whole entry): as the sequence (Q07817 whole entry Y101A) above, with A101Y counted along it
Sequence of Apoptosis regulator Bcl-2 (P10415 whole entry): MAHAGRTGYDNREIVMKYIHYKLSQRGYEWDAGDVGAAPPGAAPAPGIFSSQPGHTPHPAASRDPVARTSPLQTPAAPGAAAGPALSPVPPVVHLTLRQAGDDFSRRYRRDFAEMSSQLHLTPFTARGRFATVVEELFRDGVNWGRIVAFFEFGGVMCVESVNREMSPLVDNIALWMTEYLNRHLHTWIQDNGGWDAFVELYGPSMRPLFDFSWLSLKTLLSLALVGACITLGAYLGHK
Sequence of Induced myeloid leukemia cell differentiation protein Mcl-1 homolog (P97287 whole entry): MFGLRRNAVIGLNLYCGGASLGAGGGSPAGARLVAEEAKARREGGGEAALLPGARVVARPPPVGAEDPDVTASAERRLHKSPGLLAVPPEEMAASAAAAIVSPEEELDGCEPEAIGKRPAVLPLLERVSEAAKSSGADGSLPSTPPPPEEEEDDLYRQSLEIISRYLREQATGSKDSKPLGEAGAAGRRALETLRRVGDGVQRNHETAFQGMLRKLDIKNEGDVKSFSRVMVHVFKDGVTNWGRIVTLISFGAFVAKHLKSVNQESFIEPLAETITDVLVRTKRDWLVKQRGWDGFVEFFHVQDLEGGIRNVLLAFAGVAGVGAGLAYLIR

Structure (SMILES) | IC50 (Bcl-2-like protein 1 [1]) [µM] | EC50 (OVCAR-3) [µM] | EC50 [2] [µM] | Activity (PC-3) | EC50 (PC-3) [µM] | EC50 (A2780) [µM] | EC50 (HepG2) [µM] | EC50 (K562) [µM] | IC50 (Bcl-2-like protein 1 [3]) [µM] | IC50 [4] [µM] | IC50 [5] [µM] | Kd (Bcl-2-like protein 1 [6]) [mM]
O=C(O)COc1cccc(/C=c2\sc3n(c2=O)C(c2cccc(F)c2)C2=C(N=3)c3ccccc3CC2)c1 (stereo not drawn) | 5.4 | 2.8 | 50.9 | Dose-dependent effect | > 100 | 16.9 | 186 | > 100 | – | – | – | –
O=C(O)COc1cccc(/C=c2\sc3n(c2=O)C(c2cccc4ccccc24)C2=C(N=3)c3ccccc3CC2)c1 (stereo not drawn) | 19.7 | 2.21 | 3.1 | – | 68 | 7.52 | 19.9 | 6.33 | – | – | – | –
COc1ccccc1C1C2=C(N=c3s/c(=C\c4cccc(OCC(=O)O)c4)c(=O)n31)c1cccc(OC(=O)c3ccccc3-c3ccccc3)c1CC2 (stereo not drawn) | > 100 | – | – | – | 16.6 | – | – | – | – | – | – | –
O=C(O)COc1cccc(/C=c2\sc3n(c2=O)C(c2ccco2)C2=C(N=3)c3ccccc3CC2)c1 (stereo not drawn) | 40.4 | 8.5 | 14 | Dose-dependent effect | 10.2 | 15.3 | 72.8 | > 100 | – | – | – | –
O=C(O)c1cccc(-c2ccc(/C=c3\sc4n(c3=O)C(c3ccccc3F)C3=C(N=4)c4ccccc4CC3)o2)c1 (stereo not drawn) | 6.2 | 76.6 | > 500 | – | 31.2 | > 100 | > 500 | > 100 | – | – | – | –
CC(C)C(C(=O)O)C1C(=O)/C(=C/c2ccc(Br)cc2)SC1=S (stereo not drawn) | 6.2 | – | – | – | – | – | – | – | – | – | – | –
O=C(O)c1cccc(-c2ccc(/C=c3\sc4n(c3=O)C(c3cccc5ccccc35)C3=C(N=4)c4ccccc4CC3)o2)c1 (stereo not drawn) | 13.4 | 18.7 | 204 | Dose-dependent effect | 24.2 | 6.34 | > 500 | 22.9 | – | – | – | –
O=C(O)c1cccc(-c2ccc(/C=c3\sc4n(c3=O)C(c3cccc([N+](=O)[O-])c3)C3=C(N=4)c4ccccc4CC3)o2)c1 (stereo not drawn) | 1.9 | 26.9 | 65.1 | Dose-dependent effect | 44.9 | 3.9 | 13.4 | 17.3 | – | – | – | –
COc1cccc(C2C3=C(N=c4s/c(=C\c5ccc(-c6cccc(C(=O)O)c6)o5)c(=O)n42)c2ccccc2CC3)c1 (stereo not drawn) | 7.3 | 7.91 | > 100 | Dose-dependent effect | 29.5 | 13.8 | > 100 | > 100 | 7.3 | 19.2 | 11.1 | –
COc1ccccc1C1C2=C(N=c3s/c(=C\c4cccc(OCC(=O)O)c4)c(=O)n31)c1cccc(OCc3ccccc3)c1CC2 (stereo not drawn) | > 100 | – | – | – | > 100 | – | – | – | – | – | – | –
O=C(O)c1cccc(-c2ccc(/C=c3\sc4n(c3=O)C(c3ccc(F)cc3)C3=C(N=4)c4ccccc4CC3)o2)c1 (stereo not drawn) | 5.2 | 5.85 | 25.9 | Dose-dependent effect | 13.4 | 7.38 | 35.1 | 26.3 | – | – | – | –
CCOC(=O)COc1cccc(/C=c2\sc3n(c2=O)C(c2ccccc2OC)C2=C(N=3)c3ccccc3CC2)c1 (stereo not drawn) | 100 | 47.5 | 92.3 | – | 45 | 17.8 | 32.3 | > 100 | – | – | – | –
COc1ccccc1C1C2=C(N=c3sc(=Cc4ccc(C=CC(=O)O)cc4)c(=O)n31)c1ccccc1CC2 (stereo not drawn) | 12.7 | 3.29 | 11.2 | Dose-dependent effect | 17.3 | 7.85 | 49.8 | > 100 | – | – | – | –
O=C(O)COc1cccc(/C=c2\sc3n(c2=O)C(c2ccccc2)C2=C(N=3)c3ccccc3CC2)c1 (stereo not drawn) | 10.3 | 2.73 | 7.8 | – | > 100 | 5.49 | 14.5 | 7.04 | – | – | – | –
COc1ccc2c(c1)CCC1=C2N=c2s/c(=C\c3ccc(-c4cccc(C(=O)O)c4)o3)c(=O)n2C1c1cccc(F)c1 (stereo not drawn) | > 100 | – | – | Dose-dependent effect | 35.2 | – | – | – | – | – | – | –
COc1ccc(C2C3=C(N=c4s/c(=C\c5ccc(OCc6cccc(C(=O)O)c6)c(OC)c5)c(=O)n42)c2ccccc2CC3)cc1 (stereo not drawn) | 17.4 | 11.7 | 7.2 | Dose-dependent effect | > 100 | 3.03 | 9.9 | 6.42 | 17.4 | 34.4 | 19.4 | > 1
O=C(O)c1cccc(-c2ccc(/C=c3\sc4n(c3=O)C(c3ccccc3)C3=C(N=4)c4ccccc4CC3)o2)c1 (stereo not drawn) | 12.6 | 18.9 | 71.7 | – | > 100 | 7.46 | 13.6 | > 100 | – | – | – | –
COc1ccc2c(c1)CCC1=C2N=c2s/c(=C\c3cccc(OCC(=O)O)c3)c(=O)n2C1c1ccccc1OC (stereo not drawn) | > 100 | – | – | – | > 100 | – | – | – | – | – | – | –
COc1ccccc1C1C2=C(N=c3s/c(=C\c4ccc(-c5cccc(C(=O)O)c5)o4)c(=O)n31)c1ccccc1CC2 (stereo not drawn) | 5.3 | 9.06 | 140 | – | 23.2 | 4.94 | 35.6 | 20.8 | – | – | – | –
O=C(O)COc1cccc(/C=c2\sc3n(c2=O)C(c2cccc(F)c2)C2=C(N=3)/C(=C/c3cccc(F)c3)CCC2)c1 (stereo not drawn) | > 100 | 3.27 | 4.3 | – | 12 | 6.8 | 15.9 | > 100 | – | – | – | –
COc1ccccc1C1C2=C(N=c3s/c(=C\c4ccc(-c5cccc(C(=O)O)c5)cc4)c(=O)n31)c1ccccc1CC2 (stereo not drawn) | 26.7 | 7.17 | 4.5 | – | 67.1 | 2.23 | 7.2 | 9.41 | – | – | – | –
COc1ccccc1C1C2=C(N=c3s/c(=C\c4ccccc4OCC(=O)O)c(=O)n31)c1ccccc1CC2 (stereo not drawn) | 12.1 | 4.44 | 9.5 | Dose-dependent effect | – | 7.81 | 41.9 | 7.99 | – | – | – | –
COc1ccccc1C1C2=C(N=c3s/c(=C\c4ccc(OCC(=O)O)cc4)c(=O)n31)c1ccccc1CC2 (stereo not drawn) | 36 | 2.85 | 6.1 | – | 11.1 | 6.13 | 15.3 | 5.62 | – | – | – | –
O=C(O)c1cccc(-c2ccc(/C=c3\sc4n(c3=O)C(c3cccc(F)c3)C3=C(N=4)c4ccccc4CC3)o2)c1 (stereo not drawn) | 3 | 12 | 51.3 | Dose-dependent effect | > 100 | 5.81 | 15.4 | > 100 | 3 | 8.6 | 3.2 | –
O=C(O)c1cccc(-c2ccc(/C=c3\sc4n(c3=O)C(c3ccco3)C3=C(N=4)c4ccccc4CC3)o2)c1 (stereo not drawn) | 35.9 | > 100 | > 500 | Dose-dependent effect | 79.5 | 15.8 | > 500 | > 100 | – | – | – | –
COc1ccccc1C1C=C(c2ccccc2)N=c2s/c(=C\c3cccc(OCC(=O)O)c3)c(=O)n21 (stereo not drawn) | 72 | 22.2 | > 500 | – | 65.2 | 9.98 | 175 | > 100 | – | – | – | –
COc1ccccc1C1C2=C(N=c3s/c(=C\c4ccc(C(=O)O)cc4)c(=O)n31)c1ccccc1CC2 (stereo not drawn) | 12.6 | 3.35 | 9.7 | – | 63.5 | 7.94 | 45 | 16.1 | – | – | – | –
COc1ccc(C2C3=C(N=c4s/c(=C\c5ccc(-c6cccc(C(=O)O)c6)o5)c(=O)n42)c2ccccc2CC3)cc1 (stereo not drawn) | 6.9 | 7.21 | 24.7 | Dose-dependent effect | 12 | 13.1 | > 100 | 72.3 | 6.9 | 18.6 | 8 | > 1
O=C(O)c1cccc(-c2ccc(/C=c3\sc4n(c3=O)C(c3cccc(F)c3)C3=C(N=4)/C(=C/c4cccc(F)c4)CCC3)o2)c1 (stereo not drawn) | > 100 | 11.7 | 3.8 | – | 51.4 | 5.36 | 8 | > 100 | – | – | – | –
